In ChEMBL document CHEMBL3632622, “Synthesis and biological evaluation of novel N-phenyl ureidobenzenesulfonate derivatives as potential anticancer agents. Part 2. Modulation of the ring B” (Eur J Med Chem, 2015):
Activity calls are given as the source filed them. No cut-off for these calls is given here.

Experiments:
[1] = test system: MCF7; assay: Antiproliferative activity against human MCF7 cells assessed as growth inhibition incubated for 48 hrs by sulforhodamine B assay; format: functional, cell-based; settings: MCF7, 48 h
[2] = test system: M21; assay: Cell cycle arrest in human M21 cells assessed as accumulation at S phase at 39 uM after 24 hrs by DAPI staining-based flow cytometry (reference value: 17.4%); format: functional
[3] = Antiproliferative activity against human HT1080 cells assessed as growth inhibition incubated for 48 hrs by sulforhodamine B assay; format: functional, cell-based, HT-1080
[4] = test system: M21; assay: Antiproliferative activity against human M21 cells assessed as growth inhibition incubated for 48 hrs by sulforhodamine B assay; format: functional, cell-based; settings: M21, 48 h
[5] = test system: M21; assay: Cell cycle arrest in human M21 cells assessed as accumulation at G0/G1 phase at 39 uM after 24 hrs by DAPI staining-based flow cytometry (reference value: 65.1%); format: functional
[6] = test system: M21; assay: Cell cycle arrest in human M21 cells assessed as accumulation at subG1 phase at 39 uM after 24 hrs by DAPI staining-based flow cytometry (reference value: 1.5%); format: functional
[7] = test system: M21; assay: Cell cycle arrest in human M21 cells assessed as accumulation at G2/M phase at 39 uM after 24 hrs by DAPI staining-based flow cytometry (reference value: 16%); format: functional
[8] = test system: HT-29; assay: Antiproliferative activity against human HT-29 cells assessed as growth inhibition incubated for 48 hrs by sulforhodamine B assay; format: functional, cell-based; settings: HT-29, 48 h
[9] = test system: M21; assay: Cell cycle arrest in human M21 cells assessed as accumulation at subG1 phase at 7.6 uM after 24 hrs by DAPI staining-based flow cytometry (reference value: 1.5%); format: functional
[10] = test system: M21; assay: Cell cycle arrest in human M21 cells assessed as accumulation at G0/G1 phase at 7.6 uM after 24 hrs by DAPI staining-based flow cytometry (reference value: 65.1%); format: functional
[11] = test system: M21; assay: Cell cycle arrest in human M21 cells assessed as accumulation at S phase at 7.6 uM after 24 hrs by DAPI staining-based flow cytometry (reference value: 17.4%); format: functional
[12] = test system: M21; assay: Cell cycle arrest in human M21 cells assessed as accumulation at G2/M phase at 7.6 uM after 24 hrs by DAPI staining-based flow cytometry (reference value: 16%); format: functional
[13] = test system: M21; assay: Cell cycle arrest in human M21 cells assessed as accumulation at G2/M phase at 4.1 uM after 24 hrs by DAPI staining-based flow cytometry (reference value: 16%); format: functional
[14] = test system: M21; assay: Cell cycle arrest in human M21 cells assessed as accumulation at S phase at 4.1 uM after 24 hrs by DAPI staining-based flow cytometry (reference value: 17.4%); format: functional
[15] = test system: M21; assay: Cell cycle arrest in human M21 cells assessed as accumulation at subG1 phase at 4.1 uM after 24 hrs by DAPI staining-based flow cytometry (reference value: 1.5%); format: functional
[16] = test system: M21; assay: Cell cycle arrest in human M21 cells assessed as accumulation at G0/G1 phase at 4.1 uM after 24 hrs by DAPI staining-based flow cytometry (reference value: 65.1%); format: functional
[17] = test system: M21; assay: Cell cycle arrest in human M21 cells assessed as accumulation at S phase at 34 uM after 24 hrs by DAPI staining-based flow cytometry (reference value: 17.4%); format: functional
[18] = test system: M21; assay: Cell cycle arrest in human M21 cells assessed as accumulation at subG1 phase at 34 uM after 24 hrs by DAPI staining-based flow cytometry (reference value: 1.5%); format: functional
[19] = test system: M21; assay: Cell cycle arrest in human M21 cells assessed as accumulation at G0/G1 phase at 34 uM after 24 hrs by DAPI staining-based flow cytometry (reference value: 65.1%); format: functional
[20] = test system: M21; assay: Cell cycle arrest in human M21 cells assessed as accumulation at G2/M phase at 34 uM after 24 hrs by DAPI staining-based flow cytometry (reference value: 16%); format: functional
[21] = test system: M21; assay: Cell cycle arrest in human M21 cells assessed as accumulation at G2/M phase at 1 uM after 24 hrs by DAPI staining-based flow cytometry (reference value: 16%); format: functional
[22] = test system: M21; assay: Induction DNA DSBs in human M21 cells assessed as increase in gamma H2AX foci at 1 uM incubated for 24 hrs by DAPI staining based immunocytochemistry; format: cell-based
[23] = test system: M21; assay: Cell cycle arrest in human M21 cells assessed as accumulation at G0/G1 phase at 1 uM after 24 hrs by DAPI staining-based flow cytometry (reference value: 65.1%); format: functional
[24] = test system: M21; assay: Cell cycle arrest in human M21 cells assessed as accumulation at subG1 phase at 1 uM after 24 hrs by DAPI staining-based flow cytometry (reference value: 1.5%); format: functional
[25] = test system: M21; assay: Cell cycle arrest in human M21 cells assessed as accumulation at S phase at 1 uM after 24 hrs by DAPI staining-based flow cytometry (reference value: 17.4%); format: functional
[26] = Homo sapiens, HT-1080, 48 h, read-out: IC50

SMILES | IC50 [1] [µM] | IC50 [8] [µM] | IC50 [3, 26] [µM] | IC50 [4] [µM] | further results
Cc1cc(OS(=O)(=O)c2ccc(NC(=O)NCCCl)cc2)cc(C)c1C | 9.4 | 6.6 | 9 | 6.5 | Activity [2]: 14.8%; Activity [5]: 11.4%; Activity [6]: 8.7%; Activity [7]: 65.1%
N#Cc1ccc(OS(=O)(=O)c2ccc(NC(=O)NCCCl)cc2)cc1 | 19 | 18 | 14 | 19 | –
CCc1ccc(OS(=O)(=O)c2ccc(NC(=O)NCCCl)cc2)cc1 | 16 | 15 | 9.8 | 16 | –
CCCc1ccc(OS(=O)(=O)c2ccc(NC(=O)NCCCl)cc2)cc1 | 13 | 11 | 5.2 | 12 | –
O=C(NCCCl)Nc1ccc(S(=O)(=O)Oc2ccc(I)cc2)cc1 | 11 | 9.5 | 8.7 | 11 | –
CN(C)c1ccc(OS(=O)(=O)c2ccc(NC(=O)NCCCl)cc2)cc1 | – | – | – | – | IC50 ([3]; ht-1080): Not Active
COc1ccc(OS(=O)(=O)c2ccc(NC(=O)NCCCl)cc2)cc1 | 23 | 22 | 15 | 17 | –
Cc1ccc(OS(=O)(=O)c2ccc(NC(=O)NCCCl)cc2)cc1 | 19 | 20 | 12 | 17 | –
COc1ccc(OS(=O)(=O)c2ccc(NC(=O)NCCCl)cc2)cc1OC | 15 | 13 | 11 | 12 | –
O=C(NCCCl)Nc1ccc(S(=O)(=O)Oc2ccc(O)cc2)cc1 | – | – | – | – | IC50 ([3]; ht-1080): Not Active
CC(C)(C)c1ccc(OS(=O)(=O)c2ccc(NC(=O)NCCCl)cc2)cc1 | 17 | 15 | 6.8 | 18 | –
O=C(NCCCl)Nc1ccc(S(=O)(=O)Oc2cccc(F)c2)cc1 | 7.8 | 5.5 | 4.5 | 5.3 | Activity [17]: 4.4%; Activity [18]: 6.2%; Activity [19]: 2.5%; Activity [20]: 86.9%
CCNC(=O)Nc1ccc(S(=O)(=O)Oc2ccccc2CC)cc1 | – | – | 0.36 | – | –
O=C(NCCCl)Nc1ccc(S(=O)(=O)Oc2ccc(F)cc2)cc1 | 14 | 12 | 11 | 12 | –
O=C(NCCCl)Nc1ccc(S(=O)(=O)Oc2cc(F)c(F)c(F)c2)cc1 | 11.3 | 9.9 | 9.8 | 11.3 | –
COc1ccccc1OS(=O)(=O)c1ccc(NC(=O)NCCCl)cc1 | 19 | 13 | 8.3 | 15 | –
O=C(NCCCl)Nc1ccc(S(=O)(=O)Oc2ccccc2)cc1 | 19 | 17 | 8.8 | 16 | –
O=C(NCCCl)Nc1ccc(S(=O)(=O)Oc2cccc([N+](=O)[O-])c2)cc1 | 18 | 17 | 10 | 17 | –

Continued, in another order:

IC50 [1] [µM] | IC50 [8] [µM] | SMILES | IC50 [3, 26] [µM] | IC50 [4] [µM] | further results
2.9 | 1.8 | Cc1cc(C)cc(OS(=O)(=O)c2ccc(NC(=O)NCCCl)cc2)c1 | 2.4 | 1.7 | –
1.8 | 1.3 | O=C(NCCCl)Nc1ccc(S(=O)(=O)Oc2cccc(I)c2)cc1 | 1.4 | 1.2 | Activity [9]: 3.6%; Activity [10]: 2%; Activity [11]: 4.9%; Activity [12]: 89.5%
4.1 | 3.3 | CCc1ccccc1OS(=O)(=O)c1ccc(NC(=O)NCCCl)cc1 | 1.2 | 2.1 | Activity [13]: 19.2%; Activity [14]: 44.1%; Activity [15]: 2%; Activity [16]: 34.7%
7.3 | 6.3 | O=C(NCCCl)Nc1ccc(S(=O)(=O)Oc2ccc(Cl)cc2)cc1 | 5.9 | 6 | Activity [17]: 6.6%; Activity [18]: 8.6%; Activity [19]: 19%; Activity [20]: 65.8%
1.51 | 1.5 | O=C(NCCCl)Nc1ccc(S(=O)(=O)Oc2ccccc2I)cc1 | 1.2 | 1.9 | Activity [21]: 15%; Activity [22]: Active; Activity [23]: 36.4%; Activity [24]: 1.7%; Activity [25]: 46.9%
1.9 | 1.5 | Cc1ccc(C)c(OS(=O)(=O)c2ccc(NC(=O)NCCCl)cc2)c1 | 1.7 | 1.5 | Activity [9]: 5.5%; Activity [10]: 7.2%; Activity [11]: 11.9%; Activity [12]: 75.4%
7.2 | 6 | Cc1cccc(OS(=O)(=O)c2ccc(NC(=O)NCCCl)cc2)c1 | 5.8 | 6.2 | –
1.8 | 1.5 | CC(C)c1ccccc1OS(=O)(=O)c1ccc(NC(=O)NCCCl)cc1 | 0.84 | 1.5 | Activity [21]: 23.4%; Activity [22]: Active; Activity [23]: 23.6%; Activity [24]: 1.2%; Activity [25]: 51.8%
7.1 | 5.6 | CCc1cccc(OS(=O)(=O)c2ccc(NC(=O)NCCCl)cc2)c1 | 3.8 | 6 | Activity [2]: 11.3%; Activity [5]: 15.2%; Activity [6]: 5%; Activity [7]: 68.5%
